According to patent US8569302B2, “Inhibitors of flaviviridae viruses” (Gilead Sciences, Inc., priority 2009, dated 2013):

The compounds below were run on human hepatoma Huh-7 cell line harboring a HCV replicon (assay: HCV replicon assay (inhibition of viral replication, luciferase readout)). Conditions: Hepatitis C virus, 72 h, Huh-7 HCV replicon cells, 3 days incubation.
Assay type: cell-based
Method in brief: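 Read-outs: luciferase luminescence for replication inhibition, corrected by ITMN-191 (100% inhibition) wells, and calcein AM fluorescence for cytotoxicity. Cells were treated for 3 days at 37 °C with ten 3-fold compound dilutions in 0.44% final DMSO. Percent inhibition relative to DMSO was fitted with a Hill equation to give EC50 and CC50.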

| Structure (SMILES) | inhibition at 2 µM |
| --- | --- |
| CC(C)(C)C#Cc1cc(N(C(=O)[C@H]2CC[C@H](C)CC2)[C@H]2CC[C@@H](Oc3ccc(Cl)nn3)CC2)c(C(=O)O)s1 [Compound 177, 3-(N-(4-(6-Chloropyridazin-3-yloxy)cyclohexyl)-4-methylcyclohexanecarboxamido)-5-(3,3-dimethylbut-1-ynyl)thiophene-2-carboxylic acid] | 99.6% |
| CC(C)(C)C#Cc1cc(N(C(=O)[C@H]2CC[C@H](C)CC2)[C@H]2CC[C@@H](Oc3ccc(O)nn3)CC2)c(C(=O)O)s1 [Compound 178, 5-(3,3-Dimethylbut-1-ynyl)-3-(N-(4-(6-hydroxypyridazin-3-yloxy)cyclohexyl)-4-methylcyclohexanecarboxamido)thiophene-2-carboxylic acid] | 100% |
| CC(C)(C)C#Cc1cc(N(C(=O)[C@H]2CC[C@H](C)CC2)[C@H]2CC[C@@H](Oc3cncnc3)CC2)c(C(=O)O)s1 [Compound 179, 5-(3,3-Dimethylbut-1-ynyl)-3-(4-methyl-N-(4-(pyrimidin-5-yloxy)cyclohexyl)cyclohexanecarboxamido)thiophene-2-carboxylic acid] | 99.5% |
| CC(C)(C)C#Cc1cc(N(C(=O)[C@H]2CC[C@H](C)CC2)[C@H]2CC[C@@H](Oc3cccnc3)CC2)c(C(=O)O)s1 [Compound 180, 5-(3,3-Dimethylbut-1-ynyl)-3-(4-methyl-N-(4-(pyridin-3-yloxy)cyclohexyl)cyclohexanecarboxamido)thiophene-2-carboxylic acid] | 99.6% |
| CC(C)(C)C#Cc1cc(N(C(=O)[C@H]2CC[C@H](C)CC2)[C@H]2CC[C@@H](Oc3ncccn3)CC2)c(C(=O)O)s1 [Compound 181, 5-(3,3-Dimethylbut-1-ynyl)-3-(4-methyl-N-(4-(pyrimidin-2-yloxy)cyclohexyl)cyclohexanecarboxamido)thiophene-2-carboxylic acid] | 98.3% |
| CC(C)(C)C#Cc1cc(N(C(=O)[C@H]2CC[C@H](C)CC2)[C@H]2CC[C@@H](Oc3cnc(Cl)cn3)CC2)c(C(=O)O)s1 [Compound 182, 3-(N-(4-(5-Chloropyrazin-2-yloxy)cyclohexyl)-4-methylcyclohexanecarboxamido)-5-(3,3-dimethylbut-1-ynyl)thiophene-2-carboxylic acid] | 99% |
| CC(C)(C)C#Cc1cc(N(C(=O)[C@H]2CC[C@H](C)CC2)[C@H]2CC[C@@H](Oc3ccnnc3)CC2)c(C(=O)O)s1 [Compound 183, 5-(3,3-Dimethylbut-1-ynyl)-3-(4-methyl-N-(4-(pyridazin-4-yloxy)cyclohexyl)cyclohexanecarboxamido)thiophene-2-carboxylic acid] | 100% |
| CC(C)(C)C#Cc1cc(N(C(=O)[C@H]2CC[C@H](C)CC2)[C@H]2CC[C@H](Oc3cnc(Cl)cn3)CC2)c(C(=O)O)s1 [Compound 184, 3-(N-(4-(5-Chloropyrazin-2-yloxy)cyclohexyl)-4-methylcyclohexanecarboxamido)-5-(3,3-dimethylbut-1-ynyl)thiophene-2-carboxylic acid] | 97.8% |
| CC(C)(C)C#Cc1cc(N(C(=O)[C@H]2CC[C@H](C)CC2)[C@H]2CC[C@H](Oc3ccnnc3)CC2)c(C(=O)O)s1 [Compound 185, 5-(3,3-Dimethylbut-1-ynyl)-3-(4-methyl-N-(4-(pyridazin-4-yloxy)cyclohexyl)cyclohexanecarboxamido)thiophene-2-carboxylic acid] | 84.7% |
| CC1CCC(C(=O)N(c2cc(C#CC(C)(C)C)sc2C(=O)O)C2CCC(Oc3cccc(CN4CCCC4)n3)CC2)CC1 (stereo not shown) [Compound 187, 3-[[-4-(6-pyrrolidin-1-ylmethyl-pyridin-2-yloxy)-cyclohexyl]-(4-methyl-cyclohexanecarbonyl)-amino]-5-(3,3-Dimethyl-but-1-ynyl)-thiophene-2-carboxylic acid] | 100% |
| CC1CCC(C(=O)N(c2cc(C#CC(C)(C)C)sc2C(=O)O)[C@H]2CC[C@H](Oc3cccc(CN4CCOCC4)n3)CC2)CC1 (stereo partly shown) [Compound 188, 3-[[-4-(6-morpholin-1-ylmethyl-pyridin-2-yloxy)-cyclohexyl]-(4-methyl-cyclohexanecarbonyl)-amino]-5-(3,3-Dimethyl-but-1-ynyl)-thiophene-2-carboxylic acid] | 100% |
| CC1CCC(C(=O)N(c2cc(C#CC(C)(C)C)sc2C(=O)O)[C@H]2CC[C@H](Oc3cc(CN4CCCC4=O)ccn3)CC2)CC1 (stereo partly shown) [Compound 189, 3-[[-4-(4-pyrrolidin-2-one-1-ylmethyl-pyridin-2-yloxy)-cyclohexyl]-(4-methyl-cyclohexanecarbonyl)-amino]-5-(3,3-Dimethyl-but-1-ynyl)-thiophene-2-carboxylic acid] | 99.9% |
| CC1CCC(C(=O)N(c2cc(C#CC(C)(C)C)sc2C(=O)O)[C@H]2CC[C@H](Oc3cc(CN4CCC(O)C4)ccn3)CC2)CC1 (stereo partly shown) [Compound 190, 3-[[-4-[4-(3-hydroxy-pyrrolidin-1-ylmethyl)-pyridin-2-yloxy]-cyclohexyl]-(4-methyl-cyclohexanecarbonyl)-amino]-5-(3,3-Dimethyl-but-1-ynyl)-thiophene-2-carboxylic acid] | 100% |
| CC1CCC(C(=O)N(c2cc(C#CC(C)(C)C)sc2C(=O)O)[C@H]2CC[C@H](Oc3cc(CN(C)CCO)ccn3)CC2)CC1 (stereo partly shown) [Compound 191, 3-[[-4-[4-{[(2-hydroxy-ethyl)-methyl-amino]-1-ylmethyl}-pyridin-2-yloxy]-cyclohexyl]-(4-methyl-cyclohexanecarbonyl)-amino]-5-(3,3-Dimethyl-but-1-ynyl)-thiophene-2-carboxylic acid] | 100% |
| CC1CCC(C(=O)N(c2cc(C#CC(C)(C)C)sc2C(=O)O)[C@H]2CC[C@H](Oc3cncc(CN(C)C)c3)CC2)CC1 (stereo partly shown) [Compound 192, 3-[[-4-(5-dimethylaminomethyl-pyridin-3-yloxy)-cyclohexyl]-(4-methyl-cyclohexanecarbonyl)-amino]-5-(3,3-dimethyl-but-1-ynyl)-thiophene-2-carboxylic acid] | 100% |
| CC1CCC(C(=O)N(c2cc(C#CC(C)(C)C)sc2C(=O)O)[C@H]2CC[C@H](Oc3cncc(CN4CCCC4)c3)CC2)CC1 (stereo partly shown) [Compound 193, 3-[[-4-(5-pyrrolidin-1-ylmethyl-pyridin-3-yloxy)-cyclohexyl]-(4-methyl-cyclohexanecarbonyl)-amino]-5-(3,3-dimethyl-but-1-ynyl)-thiophene-2-carboxylic acid] | 100% |
| CC1CCC(C(=O)N(c2cc(C#CC(C)(C)C)sc2C(=O)O)[C@H]2CC[C@H](Oc3cncc(CN4CCOCC4)c3)CC2)CC1 (stereo partly shown) [Compound 194, 3-[[4-(5-morpholin-4-ylmethyl-pyridin-3-yloxy)-cyclohexyl]-(4-methyl-cyclohexanecarbonyl)-amino]-5-(3,3-dimethyl-but-1-ynyl)-thiophene-2-carboxylic acid] | 99.9% |
| CC1CCC(C(=O)N(c2cc(C#CC(C)(C)C)sc2C(=O)O)[C@H]2CC[C@H](Oc3cnccc3CN3CCC(N(C)C)C3)CC2)CC1 (stereo partly shown) [Compound 195, 3-[[-4-(3-dimethylamino-pyrrolidin-1-ylmethyl-pyridin-3-yloxy)-cyclohexyl]-(4-methyl-cyclohexanecarbonyl)-amino]-5-(3,3-dimethyl-but-1-ynyl)-thiophene-2-carboxylic acid] | 99.7% |
| CC1CCC(C(=O)N(c2cc(C#CC(C)(C)C)sc2C(=O)O)[C@H]2CC[C@H](Oc3cnccc3CN3CCCC3)CC2)CC1 (stereo partly shown) [Compound 196, 3-[[-4-(4-pyrrolidin-1-ylmethyl-pyridin-3-yloxy)-cyclohexyl]-(4-methyl-cyclohexanecarbonyl)-amino]-5-(3,3-dimethyl-but-1-ynyl)-thiophene-2-carboxylic acid] | 100% |
| CC1CCC(C(=O)N(c2cc(C#CC(C)(C)C)sc2C(=O)O)[C@H]2CC[C@H](Oc3cnccc3CN3CCC3)CC2)CC1 (stereo partly shown) [Compound 197, 3-[[-4-(4-azetidin-1-ylmethyl-pyridin-3-yloxy)-cyclohexyl]-(4-methyl-cyclohexanecarbonyl)-amino]-5-(3,3-dimethyl-but-1-ynyl)-thiophene-2-carboxylic acid] | 99.9% |
| CC1CCC(C(=O)N(c2cc(C#CC(C)(C)C)sc2C(=O)O)[C@H]2CC[C@H](Oc3cnccc3CN(C)C)CC2)CC1 (stereo partly shown) [Compound 198, 3-[[-4-(4-dimethylaminomethyl-pyridin-3-yloxy)-cyclohexyl]-(4-methyl-cyclohexanecarbonyl)-amino]-5-(3,3-dimethyl-but-1-ynyl)-thiophene-2-carboxylic acid] | 99.9% |
| CC1CCC(C(=O)N(c2cc(C#CC(C)(C)C)sc2C(=O)O)[C@H]2CC[C@H](Oc3ccnc(CN4CCCC4)c3)CC2)CC1 (stereo partly shown) [Compound 199, 3-[[-4-(2-pyrrolidin-1-ylmethyl-pyridin-4-yloxy)-cyclohexyl]-(4-methyl-cyclohexanecarbonyl)-amino]-5-(3,3-dimethyl-but-1-ynyl)-thiophene-2-carboxylic acid] | 99.9% |
| CC1CCC(C(=O)N(c2cc(C#CC(C)(C)C)sc2C(=O)O)[C@H]2CC[C@H](Oc3ccnc(CN(C)C)c3)CC2)CC1 (stereo partly shown) [Compound 200, 3-[[-4-(2-dimethylaminomethyl-pyridin-4-yloxy)-cyclohexyl]-(4-methyl-cyclohexanecarbonyl)-amino]-5-(3,3-dimethyl-but-1-ynyl)-thiophene-2-carboxylic acid] | 100% |
| Cn1cnc(S(=O)(=O)N2CCC(N(c3cc(C#CC(C)(C)C)sc3C(=O)O)C(=O)[C@H]3CC[C@H](C)CC3)CC2)c1 [Compound 201, 5-(3,3-Dimethyl-but-1-ynyl)-3-{(4-methyl-cyclohexanecarbonyl)-[1-(1-methyl-1′-1-imidazole-4-sulfonyl)-piperidin-4-yl]-amino}-thiophene-2-carboxylic acid] | 100% |
| CC(C)(C)C#Cc1cc(N(C(=O)[C@H]2CC[C@H](C)CC2)C2CCN(S(=O)(=O)c3nnc[nH]3)CC2)c(C(=O)O)s1 [Compound 202, 5-(3,3-Dimethyl-but-1-ynyl)-3-{(4-methyl-cyclohexanecarbonyl)-[1-(4H-[1,2,4]triazole-3-sulfonyl)-piperidin-4-yl]-amino}-thiophene-2-carboxylic acid] | 96.4% |
